# “Also recorded” adds a separate entry of the source.
# Experiments:
# [1] = molecular target: T1, A1-adenosine receptor (A1R) (Mus musculus, UniProt Q60612); experiment: Antagonism of hPAP anti-nociception by the A1R antagonist CPX, CFA model; format: in vivo
# T1 construct: endogenous in cells; host or cells: wild-type C57BL/6 mice, in vivo (CPX 1 mg/kg i.p.)
# T1 sequence (Q60612 1-326): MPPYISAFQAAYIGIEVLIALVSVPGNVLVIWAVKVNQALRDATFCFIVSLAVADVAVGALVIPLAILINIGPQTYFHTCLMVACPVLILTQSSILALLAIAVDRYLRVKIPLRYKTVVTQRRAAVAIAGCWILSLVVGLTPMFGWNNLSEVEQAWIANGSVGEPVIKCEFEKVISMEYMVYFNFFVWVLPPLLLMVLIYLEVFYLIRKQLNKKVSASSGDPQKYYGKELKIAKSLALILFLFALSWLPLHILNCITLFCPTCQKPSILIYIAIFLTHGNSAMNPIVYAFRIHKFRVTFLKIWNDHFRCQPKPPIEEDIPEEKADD
# Method: Wild-type mice were tested for noxious thermal (FIG. 29A) and mechanical (FIG. 29B) sensitivity before (baseline, BL) and following injection of Complete Freund's Adjuvant (CFA-arrow) into one hindpaw (inflamed paw, open circles or dark squares). The non-inflamed hindpaw served as control (shaded circles or squares). All mice were injected with active hPAP (hPAP-arrow; 250 mU, i.t.). Two days later, half the mice were injected with vehicle (CPXN-arrow, circles; intraperitoneal (i.p.); 1 h before behavioral measurements) while the other half were injected with 8-cyclopentyl-1,3-dipropylxanthine (CPX/V-arrow, squares; 1 mg/kg i.p.; 1 h before behavioral measurements). […] All data are presented as means±SEM.
# The responses of wild-type and A1R^−/− mice were also tested using the CFA chronic inflammatory pain model and the SNI neuropathic pain model.
# Rat1 cells = experiment: LPA-evoked calcium signaling (Fura2-AM) with LPA pre-incubated with bPAP; format: cell-based, rat; details: 1 μM LPA incubated 1.5 hr at 37° C. with or without 0.2 mU bPAP, applied 1 minute
# Method: (“a” in FIG. 4). In parallel, a second tube was incubated containing 1 μM LPA (without bPAP) for 1.5 hr at 37° C. (“b” in FIG. 4). Rat1 cells were loaded with the calcium-sensitive dye Fura2-acetoxymethyl (AM) ester (Dong et al., 2001), and (LPA+bPAP) applied to these cells for 1 minute (see “a” in FIG. 4). Following a brief washout period, (LPA) was applied to the cells for 1 minute (see “b” in FIG. 4).
# [2] = test system: wild-type C57BL/6 male mice; experiment: LPA-evoked sensitization in vivo (i.t. LPA with or without bPAP); details: 1 nmol LPA i.t., alone or incubated with 20 μU bPAP 10 min at 37° C.
# Method: First, mechanical sensitivity was measured with an electronic von Frey apparatus (IITC). Then, thermal sensitivity was measured using the Hargreaves method (radiant heating of hindpaw; IITC Plantar Test Apparatus).
# [3] = test system: wild-type C57BL/6 male mice; experiment: Noxious thermal sensitivity, Hargreaves method (paw withdrawal latency to radiant heat) after i.t. injection; format: in vivo, mouse
# Method: Behavior. C57BL/6 male mice, 2-3 months old, were purchased from Jackson Laboratories (Bar Harbor, Maine, United States of America) for all behavioral experiments involving PAP protein injections. All mice were acclimated to the testing room, equipment and experimenter for one day before behavioral testing. The experimenter was blind to genotype and drug treatment during behavioral testing.
# Thermal sensitivity was measured by heating one hindpaw with a Plantar Test apparatus (IITC) following the Hargreaves method (Hargreaves et al., 1988). The radiant heat source intensity was calibrated so that a paw withdrawal reflex was evoked in ˜10 seconds, on average, in wild-type C57BL/6 mice. Cutoff time was 20 s. One measurement was taken from each paw per day to determine paw withdrawal latency. To perform the tail immersion assay, mice were gently restrained in a towel and the distal one-third of the tail was immersed in 46.5° C. water. Latency to withdrawal the tail was measured once per mouse. Mechanical sensitivity was measured using semi-rigid tips attached to an Electronic von Frey apparatus (IITC) as described elsewhere (Cunha et al., 2004; Inoue et al., 2004). Three measurements were taken from each paw (separated at 5 min. intervals) then averaged to determine paw withdrawal threshold in grams.
# Intrathecal injections. hPAP, bPAP and vehicle controls were injected into the lumbar region of unanesthetized mice as described (Fairbanks, 2003).
# Intrathecal injection was chosen because PAP protein is unlikely to reach spinal cord tissue if injected intraperitoneally.
# [4] = test system: wild-type C57BL/6 male mice; format: in vivo, mouse
# From the text: Signs of immune and microglial activation can be monitored using molecular markers.
# PAP (bPAP, mPAP) = experiment: Fluorometric acid phosphatase assay (DiFMUP, EnzChek); format: biochemical, bovine; mouse; details: L-tartrate 10 mM
# Method: FIG. 3 is a set of bar graphs showing a fluorometric assay to quantify acid phosphatase activity. […] Right-hand Bar Graph: Mouse prostatic acid phosphatase (mPAP) assayed from transfected cell lysates. Activity is reduced by the PAP inhibitor L-tartrate (10 mM). These assays were performed following the manufacturers protocol (EnzChek Assay, Invitrogen, Carlsbad, Calif., United States of America) and quantified using a fluorescent microplate reader.
# A way to quantify PAP activity was needed so that reproducible amounts of active PAP protein could be added to cultured cells or injected into live mice for the experiments described below. To accomplish this, two well-established methods were tested for measuring PAP activity: 1) a colorimetric assay using para-nitrophenyl phosphate (p-NPP) hydrolysis; and 2) a fluorometric assay using difluoro-4-methylumbelliferyl phosphate (DiFMUP) hydrolysis (commercially available as the EnzChek Acid Phosphatase kit from Invitrogen, Carlsbad, Calif., United States of America). Based on direct comparisons, it was determined that the fluorometric assay was much more sensitive than p-NPP for quantification of PAP activity. […] This fluorometric assay can thus be used to quantify phosphatase activity of pure PAP protein and PAP from cell lysates.
compound,measurement,setting,value
"CCCn1c(=O)c2[nH]c(C3CCCC3)nc2n(CCC)c1=O [CPX, 8-cyclopentyl-1,3-dipropylxanthine]",effect on thermal or mechanical sensitivity after hPAP effects wore off,[1]; 1 mg/kg i.p. on day 9,did not affect thermal or mechanical sensitivity
same,effect on anti-nociceptive effects of hPAP,"[1]; 1 mg/kg i.p., two days after hPAP 250 mU i.t., 1 h before behavioral measurements",transiently reversed the anti-nociceptive effects of hPAP in control and inflamed hindpaws; also recorded: transiently antagonized all anti-nociceptive effects of hPAP
lysophosphatidic acid [LPA],change of intracellular calcium levels,Rat1 cells,dramatically changed
same,"behavioral sensitization (mechanical allodynia, thermal hyperalgesia)",[2],caused long-lasting mechanical allodynia and thermal hyperalgesia
"OC[C@H]1O[C@@H](n2cnc3c(NC4CCCC4)ncnc32)[C@H](O)[C@@H]1O [CPA, N^6-cyclopentyladenosine]","duration of effect on paw withdrawal latency, in words","[3]; i.t., compared with hPAP",short-term effects (lasting hours not days)
same,effect on noxious thermal sensitivity / paw withdrawal latency,"[3]; uninjured wild-type mice, i.t. injection (bPAP 20 μU; hPAP 1.3 mg/mL or 250 mU; ALP 25,000 mU)",dose-dependent increases in paw withdrawal latency
same,motor paralysis,[4]; two highest i.t. doses (dose range 0.0005 nmol-5 nmol),transient paralysis; also recorded: fore- and hindlimb paralysis
"CN1CC[C@]23c4c5ccc(O)c4O[C@H]2[C@@H](O)C=C[C@H]3[C@H]1C5.O=S(=O)(O)O [morphine, morphine sulfate]",increase in paw withdrawal latency above baseline,"[3]; single i.t. injection, highest doses",62.2%±9.9%
same,side effects,"[4]; mouse, in vivo",Side-effects were observed at the two highest doses
O=C(O)[C@H](O)[C@@H](O)C(=O)O [L-tartrate],effect on PAP phosphatase activity,"PAP (bPAP, mPAP)",inhibited; also recorded: reduced

# From patent US20100266569A1, “PROSTATIC ACID PHOSPHATASE FOR THE TREATMENT OF PAIN” (priority 2007, published 2010)
